Test results from US20050107450A1, “Dosing regimen for ppar-gamma activators” (priority 2001, published 2005).
Read-outs that look alike come from different tables or passages of the source.

Key:
[1] = system: ZDF rats; conditions: for heart weight/body weight ratio versus normal range: literature normal 0.23 (0.19-0.25); for rats with continued glycemic control (non-fasted plasma glucose less than 250 mg/dl): five weeks, of 8 rats
Experimental: Less Than Daily Dosing with PPAR-gamma Activator
Three groups of 8 plasma glucose-matched ZDF rats with non-fasted glucose values greater than 250 mg/dl were dosed with PPAR-gamma activator. During the study plasma glucose and serum albumin were measured weekly, HbA1c was measured every other week, and heart weights and body weights were measured terminally. Reduction of plasma glucose and HbA1c are markers for anti-diabetic efficacy (glycemic control). Decreased plasma albumin concentration is a marker for plasma volume expansion or hemodilution. The heart weight-to-body weight ratio is a marker for increased cardiac output secondary to volume expansion.
All three groups were initially dosed with PPAR-gamma activator for one week at 5 mg/kg twice daily, in order to achieve glycemic control as shown by plasma glucose less than 250 mg/dl, and volume expansion as shown by reduced serum albumin.
Following the first week one group (Group BID) was continued on the daily dosing regimen while the other two were moved to less than daily dosing. Group BID continued to be dosed at 5 mg/kg twice daily, Group MWF was dosed at 10 mg/kg per day three times weekly (Monday/Wednesday/Friday), and Group MF was dosed at 10 mg/kg per day twice weekly (Monday/Friday). These three dosing regimens were continued for five weeks.

[2] = system: Normal Han Wistar female adult rats; assay: Study 2: rat model of PPAR-gamma activator induced cardiovascular changes leading to fluid retention and edema; type: in vivo
Experimental: Rat Model of PPAR-Gamma Activator Induced Cardiovascular Changes Leading to Fluid Retention and Edema
Normal Han Wistar female adult rats were chronically instrumented for measurement of cardiac output, blood pressure and total peripheral resistance and orally dosed (8 mg/kg, bid) with PPAR-gamma activator or vehicle (PEG400, 1 ml/kg) for 10 days. Data were collected for 7 days prior to the start of dosing, for 10 days of dosing, and for 7 days after discontinuation of dosing. […] The decrease in total peripheral resistance is believed to be the initial pharmacodynamic effect of PPAR-gamma activators leading to fluid retention and edema.

[3] = system: Normal Han Wistar female adult rats; assay: Study 1: rat model of PPAR-gamma activator induced fluid retention/edema; type: in vivo; conditions: 8 mg/kg bid oral, 21 days, compared with vehicle treated control rats
Experimental: Rat Model of PPAR-Gamma Activator Induced Fluid Retention/Edema
Normal Han Wistar female adult rats were housed in metabolic cages and orally dosed (8 mg/kg, bid) with PPAR-gamma activator or vehicle (PEG400, 1 ml/kg) for 21 days. Electrolyte and water balance, plasma volume, hematocrit, and interstitial fluid volume were measured. […] In addition, there was a 50% increase in interstitial fluid volume, correlating to an edematous state.

[4] = system: Zucker Diabetic Fatty (ZDF) rats
Experimental: Model of PPAR-Gamma Activator Induced Efficacy/Glycemic Control
Two glucose-matched groups (n=6/group) of Zucker Diabetic Fatty (ZDF) rats, 7-8 weeks of age, were treated with vehicle (n-methylglucamine, 0.05M, 1 ml/kg, p.o.) or PPAR-gamma activator (5 mg/kg, bid).

[5] = after dosing was discontinued (10 days of 8 mg/kg bid)

serum albumin concentration ([1]; after initial week of 5 mg/kg twice daily, all rats, pre-treatment 3.8 gm/dl): 3.5 gm/dl
decrease in hematocrit [3]: 6%
electrolyte and water retention [3]: sustained increase
increase in interstitial fluid volume [3]: 50%
increase in plasma volume [3]: 6%
hematocrit, end-of-treatment value ([4]; 5 mg/kg bid, four weeks): 47%
time for hematocrit to return to control value ([4]; after discontinuation of 5 mg/kg bid): ≤ 3 days
hematocrit after discontinuation (control value) ([4]; within 3 days after discontinuation of 5 mg/kg bid): 52%
SMILES: Cc1oc(-c2ccccc2)nc1CCOc1ccc(C[C@H](Nc2ccccc2C(=O)c2ccccc2)C(=O)O)cc1 [GI262570, farglitazar]
heart weight/body weight ratio versus normal range ([1]; BID dose group): increased beyond the normal range
increase in terminal heart weight to body weight ratio ([1]; BID group compared to the MWF and MF dose groups): 13%
serum albumin concentration versus pre-treatment baseline ([1]; BID group, throughout dosing): remained below the pre-treatment baseline value
rats with continued glycemic control (non-fasted plasma glucose less than 250 mg/dl) ([1]; Group BID, 5 mg/kg twice daily): 8
rats with continued glycemic control (non-fasted plasma glucose less than 250 mg/dl) ([1]; Group MF, 10 mg/kg per day twice weekly): 5
rats with continued glycemic control (non-fasted plasma glucose less than 250 mg/dl) ([1]; Group MWF, 10 mg/kg per day three times weekly): 6
plasma glucose during the last two weeks of study ([1]; MWF and MF dose groups (11 responding rats) versus BID, still well below pre-dosing levels): slightly higher
heart weight/body weight ratio versus normal range ([1]; MWF and MF dose groups): within normal ranges
serum albumin concentration versus pre-treatment baseline ([1]; MWF and MF groups, by day 14 of reduced frequency dosing): returned to and remained at pre-treatment baseline values
mean non-fasted plasma glucose ([1]; after initial week of 5 mg/kg twice daily, all rats, pre-treatment 321 mg/dl): 138 mg/dL
HbA1c ([1]; all 19 animals with glycemic control (BID, MWF, MF groups)): below 6%
onset of change in total peripheral resistance and cardiac output after the initial dose ([2]; 8 mg/kg bid oral): within six hours
time at which total peripheral resistance and cardiac output changes reached steady state ([2]; 8 mg/kg bid oral): by treatment day four
cardiac output ([2]; 8 mg/kg bid oral, 10 days): increased
total peripheral resistance ([2]; 8 mg/kg bid oral, 10 days): decreased
full recovery of total peripheral resistance and cardiac output [2, 5]: after four days
time until total peripheral resistance and cardiac output began to return toward control values [2, 5]: ≤ 24 h
average non-fasted plasma glucose ([4]; 5 mg/kg bid, after four weeks, at the time dosing was discontinued, vehicle 464 mg/dl): 154 mg/dL
fluid status of treated rats ([4]; 5 mg/kg bid, after four weeks, n=6): volume expanded and two were overtly edematous
average plasma glucose ([4]; 10 days after discontinuation of 5 mg/kg bid treatment, vehicle 462 mg/dl): 175 mg/dL
